From patent publication US6828439B1, “Compounds, composition, and methods for photodynamic therapy” (Advanced Research and Technology Institute, Inc., priority 1999, dated 2004)
Entries after “also recorded” stand apart in the source; their conditions may differ.

Columns and labels:
[1] = 95° C. for several days; cited from earlier work
[2] = literature values; cited from earlier work
[3] = tested on: pUC118; test: Photochemical DNA cleavage by Cu(II) diazo complex, agarose gel (Example VI); assay type: biochemical; conditions: 25 μm, 20° C.; for DNA forms in thermal and photochemical control studies: 1 hour incubation or 455 nm light, lanes 3-11
Procedure: FIG. 10 illustrates DNA-cleavage of 50 μM pUC 118 plasmid DNA by bis(9-diazo-4,5-diazafluorene)copper(II) nitrate following 455 nm photolysis for 1 hour at 20° C. pursuant to 2% agarose gel electrophoresis.
FIG. 10 illustrates the DNA cleavage of 50 μM pUC118 by this compound following 455 nm photolysis for 1 hour at 20° C. (agarose gel, 2%).
Three forms of […] plasmid DNA were prepared for use in the […] assay. Form I was supercoiled plasmid. Form II was nicked plasmid. Form III was linear plasmid. The three plasmid forms were subjected to 11 lanes of varying conditions. Lane 1 pertained to the DNA forms alone. Lane 2 involved an EcoR1 digest of the DNA, which was used as a marker. In lane 3, the DNA was subjected for 1 hour to light at a wavelength of 455 nm. In lane 4, the DNA was subjected to 25 μm Cu(II) (diazafluorenone)2^2+ for 1 hour incubation. In lane 5, the DNA was subjected to 25 μm Cu(II) (diazafluorenone)2^2+ in the presence of light at a wavelength of 455 nm for 1 hour. Lane 6 subjected the DNA to 25 μm of 9-diazafluorene in the presence of light at a wavelength of 455 nm for 1 hour. In lane 7, the DNA was subjected to 25 μm 9-diazo-4,5-diazafluorene in the presence of light at a wavelength of 455 nm for 1 hour. In lane 8, the DNA was subjected to 25 μm bis(9-diazo-4,5-diazafluorene)copper(II) nitrate rapid quench. In lane 9, the DNA was subjected to 25 μm bis(9-diazo-4,5-diazafluorene)copper(II) nitrate for 1 hour incubation. In lane 10, the DNA was subjected to 25 μm bis(9-diazo-4,5-diazafluorene)copper(II) nitrate for 1 hour incubation at 37° C. In lane 11, the DNA was subjected to 25 μm bis(9-diazo-4,5-diazafluorene)copper(II) nitrate for 1 hour at a wavelength of 455 nm.

[4] = tested on: pUC 118 plasmid DNA; test: Photoinduced cleavage of pUC 118 plasmid DNA by compound 5, agarose gel electrophoresis (Example IV); assay type: biochemical
Procedure: FIG. 8 illustrates the photoinduced DNA-cleavage of 30 μM/bp of pUC 118 plasmid DNA by 300 μM of compound 5 following 400 nm photolysis for 12 hours at 20° C. pursuant to 2% agarose gel electrophoresis.
Cleavage ability was determined by its effectiveness in converting circular supercoiled DNA (form I) to circular relaxed DNA (form II) and linear DNA (form III). FIG. 8 illustrates the agarose gel electrophoresis of photolysis products of 300 μM 5 in the presence of pUC 118 plasmid DNA (30 μM/bp). Solutions were irradiated for 12 hours in 1:9 DMSO:Tris buffer (20 mM, pH 7.55) at 400 nm. Photolyses were performed at 400 NM (rather than 455 NM) due to a soluatochronic blue shift in the optical absorption spectrum.

[5] = Anaerobic photolysis in acetonitrile at 345 nm and 455 nm monitored by UV/Vis spectrophotometry; assay type: physicochemical; conditions: for Photolysis reactivity of free ligand / kobs of photolysis (first order): acetonitrile; for kobs of photolysis (first order): anaerobic
Procedure: FIG. 7 depicts electronic absorption profiles of anaerobic photolyses of […] acetonitrile solutions of compound 5 at: (a) 345 nm; and (b) 455 nm.
Although the CT excited states appeared to satisfy the energy requirement, it was unknown if sufficient excited state lifetime existed to drive photodecomposition of the ligand. […] In both cases, significant photobleaching was observed, consistent with formation of Fe(II) in solution. This observation was further supported by the reemergence of color following aerial oxidation.
This can be attributed to the greater extinction coefficient at 345 nm (ε=9000 M^−1cm^−1) relative to 455 nm (ε=5450 M^−1cm^−1), and the simultaneous excitation of the LMCT and n-π* transitions of the Fe(III) compound, both of which lead to denitrogenation.
To investigate this dual state hypothesis, identical photolyses were carried out on solutions of 4 in acetonitrile.

[6] = N2 extrusion on photolysis, headspace GC/MS; assay type: physicochemical; conditions: degassed benzonitrile under argon, average of 4 trials
Procedure: To correlate the observed reactivity with N2 extrusion, a series of wavelength dependent photolyses were performed on 800 μL solutions of 5 under argon in degassed benzonitrile. From headspace GC/MS analysis, N2 production was gauged by comparison of the N2/O2 ratios above the photolyzed samples relative to unphotolyzed controls. […] Taken together, these experiments provide compelling evidence that the overall strategy to induce radical formation from CT excited states is indeed operative.

[7] = Thermal reactivity of Pd metalloenediynes; assay type: physicochemical; conditions: room temperature
Procedure: The thermal reactivity of the complex was as follows. […] The reaction was followed by ^31p NMR analysis. The chemical shift of the complex was −5.71 ppm while that of the free ligand was −32.1 ppm. After 11 hours, there was evidence of the complex, free ligand, and 2 other resonances at −10.6 ppm and 25.4 ppm. […] A shift downfield was expected for the cyclized product and this could help explain the resonance at 25.4 ppm. […] What may have happened is that a ligand dissociated from the metal after cyclizing (−10.6 ppm) and then it reassociated with the metal (25.5 ppm). From the crystal structure, the environment around the metal was strained as is evident in the Pd—P—C bending. Additionally, the bite-angle of the resulting cyclized product, 1,2-bis(diphenylphosphino)naphthalene, would be smaller than that which would be required for tetrahedral geometry. This dissociation/reassociation may be slow enough to be detected on the NMR timescale.
Although crystallographic structural characterization of Pd(dppeb)Cl2 is unavailable, the d^8 Pd2^+ geometry is likely square planar with P—Pd—P angles near 90° which would reduce the alkyne carbon termini distances and lower the thermal barrier to cyclization. […]

[8] = tested on: HIV; conditions: human, in vivo; cited from earlier work

C(#CP(c1ccccc1)c1ccccc1)c1ccccc1C#CP(c1ccccc1)c1ccccc1
Thermal stability in the presence of a hydrogen donor [1]: stable | Bergman cyclization temperature reported in the literature [2]: 243 °C

[N-]=[N+]=C1c2cccnc2-c2ncccc21 [9-diazo-4,5-diazafluorene, reference compound]
DNA forms in thermal and photochemical control studies [3]: very small and comparable amounts of the nicked form; also recorded: did not exhibit any preferential thermal or photochemical DNA cleavage

O=c1c2ccccc2nnn1O [Compound 4, 3-Hydroxy-1,2,3-benzotriazine-4(3H)-one, reference compound]
DNA forms produced by photolysis of free ligand ([4]; 900 μM free ligand, 400 nm, 12 hours, lane 6): a small amount of form II | Photolysis reactivity of free ligand ([5]; 345 nm): noticeably reduced reaction rate | Photolysis reactivity of free ligand ([5]; 455 nm): no reactivity

O=c1c2ccccc2nnn1[O-].O=c1c2ccccc2nnn1[O-].O=c1c2ccccc2nnn1[O-].[Fe+3] [Compound 5, Fe(3-Hydroxy-1,2,3-benzotriazine-4(3H)-one)3]
DNA forms produced by photolysis (form I supercoiled, form II nicked, form III linear) ([4]; 300 μM 5, pUC 118 30 μM/bp, 400 nm, 12 hours, 1:9 DMSO:Tris buffer (20 mM, pH 7.55), lane 3): a mixture of linear and nicked forms | DNA cleavage on thermal incubation ([4]; similar thermal incubation without light, lane 4): no DNA cleavage | Increased N2 content versus unphotolyzed controls ([6]; 345 nm): 112% | Increased N2 content versus unphotolyzed controls ([6]; 455 nm): 9.7% | Wavelength up to which reactivity was demonstrated [5]: up to 515 nm | kobs of photolysis (first order) ([5]; 345 nm): 0.093 min⁻¹ | kobs of photolysis (first order) ([5]; 455 nm): 0.004 min⁻¹

C(#CP(c1ccccc1)c1ccccc1)c1ccccc1C#CP(c1ccccc1)c1ccccc1.C(#CP(c1ccccc1)c1ccccc1)c1ccccc1C#CP(c1ccccc1)c1ccccc1.[Pd] [Pd(dppeb)2]
Thermal stability [7]: stable at room temperature

O=[N+]([O-])[O-].O=[N+]([O-])[O-].[Cu+2].[N-]=[N+]=C1c2cccnc2-c2ncccc21.[N-]=[N+]=C1c2cccnc2-c2ncccc21 [bis(9-diazo-4,5-diazafluorene)copper(II) nitrate]
DNA forms in thermal and photochemical control studies [3]: very small and comparable amounts of the nicked form | DNA forms after photolysis ([3]; 455 nm, 1 hour, 10 mM Tris pH 7.6, 50 μM pUC118, lane 11): predominantly nicked DNA with a moderate amount of the linear form

Nc1ccn([C@H]2CC[C@@H](CO)O2)c(=O)n1 [ddC, 2′3′-dideoxycytidine]
Virustatic range in most patients [8]: 0.005-0.25 mg/kg body weight
